Experiments:
[1] = system: aminopeptidase; assay: Aminopeptidase challenge of cyclised and uncyclised lanthipeptides; conditions: compared to the uncyclised compounds; Fig. S7
[2] = biological target: αvβ3 integrin (Homo sapiens, UniProt P05106+P06756); assay type: binding; conditions: ratio of Ki values, FP competition
[3] = biological target: αvβ3 integrin (UniProt P06756 31-1048; P05106 27-788); assay: fluorescence polarisation; competition of the lanthipeptides against fluorescently labelled c(RGDyK) for αvβ3 integrin; Ki from competition curves; conditions: both partners purified
αvβ3 integrin (UniProt P06756 31-1048; P05106 27-788), sequence (P06756 31-1048, chain 1 of 2): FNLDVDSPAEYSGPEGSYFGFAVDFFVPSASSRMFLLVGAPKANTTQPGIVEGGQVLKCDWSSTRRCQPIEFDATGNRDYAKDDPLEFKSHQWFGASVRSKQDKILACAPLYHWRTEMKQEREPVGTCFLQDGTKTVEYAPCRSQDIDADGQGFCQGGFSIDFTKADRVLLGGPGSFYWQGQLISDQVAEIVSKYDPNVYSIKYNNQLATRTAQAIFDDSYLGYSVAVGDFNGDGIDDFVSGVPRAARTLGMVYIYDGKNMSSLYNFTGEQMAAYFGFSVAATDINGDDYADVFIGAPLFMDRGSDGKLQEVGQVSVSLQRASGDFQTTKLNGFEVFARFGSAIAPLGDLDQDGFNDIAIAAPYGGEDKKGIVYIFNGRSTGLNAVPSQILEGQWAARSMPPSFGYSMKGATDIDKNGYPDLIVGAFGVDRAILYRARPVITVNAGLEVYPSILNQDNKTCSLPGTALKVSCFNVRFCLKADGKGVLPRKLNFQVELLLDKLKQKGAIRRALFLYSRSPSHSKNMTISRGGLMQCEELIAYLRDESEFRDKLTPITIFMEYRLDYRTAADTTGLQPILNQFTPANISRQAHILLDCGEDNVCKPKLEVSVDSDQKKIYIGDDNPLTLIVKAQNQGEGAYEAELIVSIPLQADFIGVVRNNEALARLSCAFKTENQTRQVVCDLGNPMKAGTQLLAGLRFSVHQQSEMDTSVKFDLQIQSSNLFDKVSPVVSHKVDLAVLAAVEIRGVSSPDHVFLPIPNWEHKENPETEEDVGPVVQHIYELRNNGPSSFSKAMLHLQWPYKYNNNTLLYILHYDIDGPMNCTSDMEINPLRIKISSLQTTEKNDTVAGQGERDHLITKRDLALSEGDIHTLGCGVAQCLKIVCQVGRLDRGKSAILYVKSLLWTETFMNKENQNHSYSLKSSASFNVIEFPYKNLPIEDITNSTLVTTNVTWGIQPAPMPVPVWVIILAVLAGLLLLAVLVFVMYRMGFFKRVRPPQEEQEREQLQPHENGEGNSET
αvβ3 integrin (UniProt P06756 31-1048; P05106 27-788), sequence (P05106 27-788, chain 2 of 2): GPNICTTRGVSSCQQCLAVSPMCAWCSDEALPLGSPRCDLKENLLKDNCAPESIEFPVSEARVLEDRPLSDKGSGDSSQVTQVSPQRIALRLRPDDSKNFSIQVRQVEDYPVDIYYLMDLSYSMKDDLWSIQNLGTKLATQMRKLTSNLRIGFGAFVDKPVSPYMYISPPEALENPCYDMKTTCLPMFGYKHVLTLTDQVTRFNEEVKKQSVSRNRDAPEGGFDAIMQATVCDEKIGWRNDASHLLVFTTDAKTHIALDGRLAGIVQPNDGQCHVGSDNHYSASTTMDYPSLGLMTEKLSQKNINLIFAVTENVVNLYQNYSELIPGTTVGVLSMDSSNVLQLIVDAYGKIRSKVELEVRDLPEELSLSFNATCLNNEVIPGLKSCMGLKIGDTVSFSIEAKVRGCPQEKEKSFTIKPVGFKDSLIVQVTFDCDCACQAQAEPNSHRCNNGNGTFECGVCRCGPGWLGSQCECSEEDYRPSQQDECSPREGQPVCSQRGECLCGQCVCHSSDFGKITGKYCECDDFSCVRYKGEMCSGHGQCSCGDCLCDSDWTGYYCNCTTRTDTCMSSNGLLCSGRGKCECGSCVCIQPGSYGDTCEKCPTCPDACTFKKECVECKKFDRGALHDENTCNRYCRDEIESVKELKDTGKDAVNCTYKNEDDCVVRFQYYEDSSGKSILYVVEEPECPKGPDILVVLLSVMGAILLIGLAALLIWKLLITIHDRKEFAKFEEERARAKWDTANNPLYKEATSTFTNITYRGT

αvβ3 integrin (Homo sapiens, UniProt P05106+P06756), sequence (P06756 31-992 limits assumed): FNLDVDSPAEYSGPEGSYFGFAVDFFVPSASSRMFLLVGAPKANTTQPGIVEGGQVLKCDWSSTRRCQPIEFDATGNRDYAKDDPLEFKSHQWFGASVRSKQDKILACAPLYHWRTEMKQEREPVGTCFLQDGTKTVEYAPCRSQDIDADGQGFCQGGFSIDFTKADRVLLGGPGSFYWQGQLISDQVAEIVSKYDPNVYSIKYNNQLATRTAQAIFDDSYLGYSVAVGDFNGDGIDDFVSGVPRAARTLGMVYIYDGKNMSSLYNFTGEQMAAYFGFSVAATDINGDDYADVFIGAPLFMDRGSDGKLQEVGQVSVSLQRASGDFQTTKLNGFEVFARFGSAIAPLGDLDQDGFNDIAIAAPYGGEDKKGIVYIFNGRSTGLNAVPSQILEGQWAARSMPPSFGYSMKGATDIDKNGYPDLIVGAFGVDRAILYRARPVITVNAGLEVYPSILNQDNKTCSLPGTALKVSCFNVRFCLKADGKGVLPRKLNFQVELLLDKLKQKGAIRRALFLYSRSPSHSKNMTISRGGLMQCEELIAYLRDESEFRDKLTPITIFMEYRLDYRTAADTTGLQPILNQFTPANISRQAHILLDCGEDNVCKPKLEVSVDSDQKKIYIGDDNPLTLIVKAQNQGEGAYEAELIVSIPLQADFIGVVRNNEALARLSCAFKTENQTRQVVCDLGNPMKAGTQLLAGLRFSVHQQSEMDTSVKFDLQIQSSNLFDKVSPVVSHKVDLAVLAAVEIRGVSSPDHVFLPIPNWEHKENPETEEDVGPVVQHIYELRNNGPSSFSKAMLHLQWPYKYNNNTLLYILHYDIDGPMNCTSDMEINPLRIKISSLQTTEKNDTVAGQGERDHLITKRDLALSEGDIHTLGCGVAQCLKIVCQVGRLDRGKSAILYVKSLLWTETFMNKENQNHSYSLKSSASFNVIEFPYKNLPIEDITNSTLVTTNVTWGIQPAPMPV
αvβ3 integrin (Homo sapiens, UniProt P05106+P06756), sequence (P05106 27-718 limits assumed): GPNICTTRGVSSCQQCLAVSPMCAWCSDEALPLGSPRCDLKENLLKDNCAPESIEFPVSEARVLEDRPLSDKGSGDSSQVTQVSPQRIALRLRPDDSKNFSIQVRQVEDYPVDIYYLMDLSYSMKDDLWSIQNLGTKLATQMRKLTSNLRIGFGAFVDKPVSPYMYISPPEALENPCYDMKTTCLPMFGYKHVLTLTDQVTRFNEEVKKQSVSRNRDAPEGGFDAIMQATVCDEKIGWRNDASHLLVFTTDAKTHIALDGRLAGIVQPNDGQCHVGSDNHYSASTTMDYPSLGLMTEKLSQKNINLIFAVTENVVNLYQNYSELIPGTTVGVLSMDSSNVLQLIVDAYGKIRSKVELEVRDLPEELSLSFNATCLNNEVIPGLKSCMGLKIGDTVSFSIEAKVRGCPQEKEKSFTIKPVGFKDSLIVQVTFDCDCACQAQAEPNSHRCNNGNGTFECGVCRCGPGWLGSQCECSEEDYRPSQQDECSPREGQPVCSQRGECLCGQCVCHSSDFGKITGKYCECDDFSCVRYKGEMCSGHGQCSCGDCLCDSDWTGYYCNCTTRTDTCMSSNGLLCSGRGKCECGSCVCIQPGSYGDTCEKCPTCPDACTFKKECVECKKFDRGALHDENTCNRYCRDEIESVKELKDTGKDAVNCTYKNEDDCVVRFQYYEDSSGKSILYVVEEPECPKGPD

## CSCC[C@@H]1NC(=O)[C@H]2CSC[C@H](NC(=O)[C@H](C)NC(=O)[C@H](C)NC(=O)[C@H](CC(N)=O)NC(=O)[C@@H]3CSC[C@@H](NC(=O)[C@@H]4CCCN4C(=O)[C@@H]4CCCN4C1=O)C(=O)N[C@@H](Cc1ccc(O)cc1)C(=O)N[C@@H](Cc1c[nH]c4ccccc14)C(=O)N[C@@H](CCCNC(=N)N)C(=O)NCC(=O)N[C@@H](CC(=O)O)C(=O)N3)C(=O)N[C@@H](Cc1c[nH]cn1)C(=O)N[C@@H](CC(N)=O)C(=O)N[C@@H](Cc1c[nH]cn1)C(=O)N[C@@H](C)C(=O)N1CCC[C@H]1C(=O)N2 [c16RGD]
[1]
  resistance to aminopeptidase: resistant to aminopeptidase

## CSCC[C@@H]1NC(=O)[C@H]2CSC[C@H](NC(=O)[C@H](C)NC(=O)[C@H](C)NC(=O)[C@H](CC(N)=O)NC(=O)[C@@H]3CSC[C@@H](NC(=O)[C@@H]4CCCN4C(=O)[C@@H]4CCCN4C1=O)C(=O)N[C@@H](Cc1ccc(O)cc1)C(=O)N[C@@H](CCCNC(=N)N)C(=O)NCC(=O)N[C@@H](CC(=O)O)C(=O)N[C@@H](CCC(=O)O)C(=O)N3)C(=O)N[C@@H](Cc1c[nH]cn1)C(=O)N[C@@H](CC(N)=O)C(=O)N[C@@H](Cc1c[nH]cn1)C(=O)N[C@@H](C)C(=O)N1CCC[C@H]1C(=O)N2 [c15RGD]
[2]
  fold higher affinity for αvβ3 integrin, N-to-C cyclised vs noncyclised: 4 fold
[1]
  resistance to aminopeptidase: resistant to aminopeptidase

B1: N-to-C cyclised prochlorosin 16RGD (OaAEP1-cyclised lanthipeptide) (peptide)
chain: cyclo(AACHNHAPSMPPSYWRGDCN)
modifications: thioether (positions not given here); also: lanthionine linkages installed by ProcM, places not given here, thioether: lanthionine
[3]
  Ki: 0.28 ± 0.03 µM

B2: N-to-C cyclised prochlorosin 15RGD (OaAEP1-cyclised lanthipeptide) (peptide)
chain: cyclo(AACHNHAPSMPPSYRGDECN)
modifications: thioether (positions not given here); also: lanthionine linkages installed by ProcM, places not given here, thioether: lanthionine
[3]
  Ki: 7.7 ± 1.3 µM

From paper PMC11189026 (Chemical communications (Cambridge, England), 2024)
